The target of series [1] is T1, AheGH1 (Paenalicyclobacillus herbarius, UniProt A0A8I3B065).
T1 construct: codon-optimised synthetic gene, C-terminal poly-His tag (pCH93b), E. coli BL21(DE3)
T1 sequence (A0A8I3B065 1-452): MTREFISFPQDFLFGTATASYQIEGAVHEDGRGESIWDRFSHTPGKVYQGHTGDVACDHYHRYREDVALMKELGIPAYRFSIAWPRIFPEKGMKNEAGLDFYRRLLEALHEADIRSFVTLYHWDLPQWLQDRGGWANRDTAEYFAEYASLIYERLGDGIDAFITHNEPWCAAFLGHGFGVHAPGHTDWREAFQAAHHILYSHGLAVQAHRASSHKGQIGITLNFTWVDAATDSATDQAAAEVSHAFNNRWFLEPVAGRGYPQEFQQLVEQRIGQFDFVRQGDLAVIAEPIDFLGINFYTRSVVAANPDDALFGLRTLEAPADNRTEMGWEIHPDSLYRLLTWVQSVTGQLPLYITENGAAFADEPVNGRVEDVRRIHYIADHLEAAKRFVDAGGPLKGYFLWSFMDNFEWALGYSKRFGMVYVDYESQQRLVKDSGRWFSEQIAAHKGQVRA
The series is described as follows: spectrophotometric pNPG hydrolysis at […] nm. The note with it: 10 mM pNPG, 50 mM HEPES, pH 7.4, 25 °C; product inhibitor. Type of series: biochemical.

Series [2] concerns the target T1, AheGH1. Nature of the series: spectrophotometric p-nitrophenol release at […] nm, substrate inhibition fit. Type of series: biochemical. The note with it: 50 mM HEPES, pH 7.4, 25 °C; substrate inhibition constant.
Substrate in the series “purified protein”: O=[N+]([O-])c1ccc(O[C@@H]2O[C@H](CO)[C@@H](O)[C@H](O)[C@H]2O)cc1
Nature of the series: purified protein. The note with it: 50 mM HEPES, pH 7.4, 25 °C.

This note sets out measurements from article PMC8048572, “Release of Soybean Isoflavones by Using a β‐Glucosidase from Alicyclobacillus herbarius” (Chembiochem, 2020).

As to `OC[C@H]1OC(O)[C@H](O)[C@@H](O)[C@@H]1O` (stereo partly shown) [glucose], the “% activity retained at 10 % (w/v) glucose” value at AheGH1 [1] turned out to be 65%.

Turning to `O=[N+]([O-])c1ccc(O[C@@H]2O[C@H](CO)[C@@H](O)[C@H](O)[C@H]2O)cc1` [pNPG, p‐nitrophenyl‐β‐D‐glucopyranoside], at AheGH1 [2], the K i stood at 37 ± 6 mM.

B1: AheGH1 (Paenalicyclobacillus herbarius) (protein)
chain: MTREFISFPQDFLFGTATASYQIEGAVHEDGRGESIWDRFSHTPGKVYQGHTGDVACDHYHRYREDVALMKELGIPAYRFSIAWPRIFPEKGMKNEAGLDFYRRLLEALHEADIRSFVTLYHWDLPQWLQDRGGWANRDTAEYFAEYASLIYERLGDGIDAFITHNEPWCAAFLGHGFGVHAPGHTDWREAFQAAHHILYSHGLAVQAHRASSHKGQIGITLNFTWVDAATDSATDQAAAEVSHAFNNRWFLEPVAGRGYPQEFQQLVEQRIGQFDFVRQGDLAVIAEPIDFLGINFYTRSVVAANPDDALFGLRTLEAPADNRTEMGWEIHPDSLYRLLTWVQSVTGQLPLYITENGAAFADEPVNGRVEDVRRIHYIADHLEAAKRFVDAGGPLKGYFLWSFMDNFEWALGYSKRFGMVYVDYESQQRLVKDSGRWFSEQIAAHKGQVRA
What is called Km is the concentration of substrate that gives half-maximal velocity. As a reminder, the kcat is the maximal rate divided by the concentration of active sites. Take B1: in the series “purified protein”, the Km stood at 1400 ± 100 µM and the kcat came out at 2.7 ± 0.1 s⁻¹.
